Reference: the NIST ThermoML archive (doi:10.1021/je2010209)
± gives the expanded uncertainty stated by the source.

Tests used:
[1] = 101 kPa, Liquid; for speed of sound: Sing-around technique in a fixed-path interferometer; for mass density: Vibrating tube method
[2] = xn = mol fraction of the nth substance listed; details: 101 kPa, Liquid, x1 = 1; for speed of sound: Sing-around technique in a fixed-path interferometer; for mass density: Vibrating tube method

Row | SMILES | speed of sound ([1]; 288.15 K) [m/s] | mass density ([1]; 288.15 K) [kg/m3] | speed of sound ([1]; 293.15 K) [m/s] | mass density ([1]; 293.15 K) [kg/m3] | speed of sound ([1]; 298.15 K) [m/s] | mass density ([1]; 298.15 K) [kg/m3] | speed of sound ([1]; 303.15 K) [m/s] | mass density ([1]; 303.15 K) [kg/m3] | speed of sound ([1]; 308.15 K) [m/s] | mass density ([1]; 308.15 K) [kg/m3] | speed of sound ([1]; 313.15 K) [m/s] | mass density ([1]; 313.15 K) [kg/m3] | speed of sound ([1]; 318.15 K) [m/s] | mass density ([1]; 318.15 K) [kg/m3] | also measured
1 | CCCCn1cc[n+](C)c1.F[B-](F)(F)F [1-butyl-3-methylimidazolium tetrafluoroborate] | 1589 ± 5 | 1206.51 ± 1.3 | 1577 ± 5 | 1202.95 ± 1.3 | 1565 ± 5 | 1199.39 ± 1.3 | 1554 ± 5 | 1195.82 ± 1.3 | 1542 ± 5 | 1192.27 ± 1.3 | 1531 ± 5 | 1188.72 ± 1.2 | 1520 ± 5 | 1185.17 ± 1.2 | 
2 | CCCCn1cc[n+](C)c1.F[B-](F)(F)F [1-butyl-3-methylimidazolium tetrafluoroborate] + COCCO |  |  |  |  |  |  |  |  |  |  |  |  |  |  | speed of sound ([2]; 288.15 K): 1589 ± 5 m/s; mass density ([2]; 288.15 K): 1206.51 ± 1.3 kg/m3; speed of sound ([2]; 293.15 K): 1577 ± 5 m/s; mass density ([2]; 293.15 K): 1202.95 ± 1.3 kg/m3; speed of sound ([2]; 298.15 K): 1565 ± 5 m/s; mass density ([2]; 298.15 K): 1199.39 ± 1.3 kg/m3; speed of sound ([2]; 303.15 K): 1554 ± 5 m/s; mass density ([2]; 303.15 K): 1195.82 ± 1.3 kg/m3; speed of sound ([2]; 308.15 K): 1542 ± 5 m/s; mass density ([2]; 308.15 K): 1192.27 ± 1.3 kg/m3; speed of sound ([2]; 313.15 K): 1531 ± 5 m/s; mass density ([2]; 313.15 K): 1188.72 ± 1.2 kg/m3; speed of sound ([2]; 318.15 K): 1520 ± 5 m/s; mass density ([2]; 318.15 K): 1185.17 ± 1.2 kg/m3
3 | COCCOCCO [2-(2-methoxyethoxy)ethanol] | 1451 ± 5 | 1024.6 ± 0.89 | 1434 ± 5 | 1020.2 ± 0.88 | 1416 ± 5 | 1015.79 ± 0.87 | 1399 ± 5 | 1011.36 ± 0.86 | 1382 ± 5 | 1006.92 ± 0.85 | 1366 ± 5 | 1002.47 ± 0.84 | 1349 ± 5 | 998.009 ± 0.83 | 
4 | COCCOCCOCCO [2-[2-(2-methoxyethoxy)ethoxy]ethanol] | 1470 ± 5 | 1050.1 ± 2.1 | 1452 ± 5 | 1045.75 ± 2.1 | 1436 ± 5 | 1041.32 ± 2.1 | 1421 ± 5 | 1036.84 ± 2 | 1408 ± 5 | 1032.27 ± 2 | 1393 ± 5 | 1027.76 ± 2 | 1376 ± 5 | 1023.3 ± 2 | 
5 | COCCO [2-methoxyethan-1-ol] | 1380 ± 5 | 969.794 ± 1.8 | 1367 ± 5 | 965.063 ± 1.8 | 1351 ± 5 | 960.447 ± 1.8 | 1337 ± 5 | 955.825 ± 1.7 | 1321 ± 5 | 951.214 ± 1.7 | 1304 ± 5 | 946.562 ± 1.7 | 1287 ± 5 | 941.864 ± 1.7 | 
